Test results published in patent US6777004B1, “Composition containing novel compound corniculatonin having antifungi properties and a process for preparing the same” (Council of Scientific & Industrial Research, priority 2001, dated 2004).

Tests used:
[1] = system: strains of yeast and filamentous fungi; assay: In vitro antifungal activity, disk diffusion, whole panel (summary in words); assay type: cell-based; conditions: for antifungal activity in words: all the strains of yeast and filamentous fungi tested
Method: (§1) Innocula were adjusted to 100 μl of Cryptococcus neoformans, Candida sp., Microsporum gypseum, Trichophyton tonsurans, T. violaceum and Trichophyton mentagrophytes and spread on the appropriate plates, excess moisture was allowed to absorb for 10 minutes before applying disks. Immediately prior to the assay, the testing compound of formula 1, object of the present invention, the reference compounds amphotericin B and nystatin, potency approx:750 μ/mg and 480 USP unit/mg respectively, were reconstituted in triplicate in dimethylsulfoxide. […] From the stock solution 10 μl were spread on the paper disk so as to obtain final concentration of 50 μg disc^−1, 25 μg disc^−1, 12.5 μg disc^−1, 6.25 μg disc^−1 and 3.12 μg disk^−1. Disks were dried at reduced pressure in the dessicator, at 28-29° C. and applied to innoculated plates.
(§2) In testing, the compound of formula 1 was reconstituted in dimethylsulfoxide (DMSO) immediately prior to all assays. Dimethylsulfoxide (DMSO) alone had no detectable inhibitory effect on any of the tested microbes. Compound of formula 1 was tested against a diverse collection of yeast and filamentous fungi, some of which are resistant to the reference compound nystatin. Filamentous fungi were nystatin resistant.

[2] = system: T. tonsurans; assay: Minimum Inhibitory Concentration (MIC), disk diffusion method; assay type: cell-based, Trichophyton tonsurans; conditions: 3.12-50 μg per disk tested, 42-120 hrs at room temperature
Source text: (§3) Agar: Czapek Malt Agar (Himedia laboratories Ltd.) was used for culturing Microsporumn gypseum, Trichophyton mentagrophytes T. tonsurans, T. violaceum, Aspergillus fresenii and A. niger. Mycological Agar (Himedia Laboratories Ltd) was used for Cryptococcus neoformans and Candida sp.
(§4) Pathogenic fungal strains of yeast and filamentous fungi identified and gifted by Dr. Savio from Goa Medical College, Bambolim, were used for the test. Strains of Aspergillus were isolated from the infected wheat bread with sterile needle; fungal material was surface sterilized using 0.5% sodium hypochlorite for 2-3 minutes, and then washed with small brush in sterile distilled water. Washed fungal material was transferred using needle into the sterile culture media and subcultured for purification by following standard methods (Collins and Taylor, 1967). Taxonomic identification was done by using various standard keys (Ainswort et al., 1973; Onion et al., 1981) and identification confirmed by Alka Pandey of Agarkar Research Institute, Pune.
Innocula were adjusted to 100 μl of Cryptococcus neoformans, Candida sp., Microsporum gypseum, Trichophyton tonsurans, T. violaceum and Trichophyton mentagrophytes and spread on the appropriate plates, excess moisture was allowed to absorb for 10 minutes before applying disks. […]

[3] = system: Cryptococcus neoformans; assay: as above; assay type: cell-based; conditions: 3.12-50 μg per disk tested, 42-120 hrs at room temperature
Source text: as §3, §4, §1, §2

[4] = system: Candida sp.; assay: as above; assay type: cell-based; conditions: 3.12-50 μg per disk tested, 42-120 hrs at room temperature
Source text: as §3, §4, §1, §2

[5] = system: T. violaceum; assay: as above; assay type: cell-based; conditions: 3.12-50 μg per disk tested, 42-120 hrs at room temperature
Source text: as §3, §4, §1, §2

[6] = system: Microsporum gypseum; assay: as above; assay type: cell-based; conditions: 3.12-50 μg per disk tested, 42-120 hrs at room temperature
Source text: as §3, §4, §1, §2

[7] = system: Trichophyton mentagrophytes; assay: as above; assay type: cell-based; conditions: 3.12-50 μg per disk tested, 42-120 hrs at room temperature
Source text: as §3, §4, §1, §2

[8] = system: Aspergillus fresenii; assay: as above; assay type: cell-based; conditions: 3.12-50 μg per disk tested, 42-120 hrs at room temperature
Source text: as §3, §4, §1, §2

[9] = system: T. tonsurans; assay: Disk diffusion assay, zone of inhibition; assay type: cell-based, Trichophyton tonsurans; conditions: 250 μg. disk^−1; incubated at room temperature 42-120 hrs
Source text: as §3, §4
Disk diffusion assay: The disk diffusion assay was used for screening of antifungal activity of the compound. The stock solution for the test was prepared by dissolving 5 mg of the compound of formula 1 in 200 μl dimethylsulfoxide (DMSO). […] The zones of inhibition around the disks were measured.

[10] = system: Cryptococcus neoformans; assay: Disk diffusion assay, zone of inhibition; assay type: cell-based; conditions: 250 μg. disk^−1; incubated at room temperature 42-120 hrs
Source text: as §3, §4
(§5) Disk diffusion assay: The disk diffusion assay was used for screening of antifungal activity of the compound. The stock solution for the test was prepared by dissolving 5 mg of the compound of formula 1 in 200 μl dimethylsulfoxide (DMSO). From the stock solution 10 μl were spread on the paper disc so as to obtain the final concentration of 250 μg disk^−1 Control disk was applied reconstituted with only dimethylsulphoxide and were dried at 28-29° C. Completely dried disk was applied to innoculated plates. The plates were incubated at room temperature for the period between 42-120 hrs. to obtain maximum growth in the culture media. The zones of inhibition around the disks were measured.

[11] = system: Candida sp.; assay: Disk diffusion assay, zone of inhibition; assay type: cell-based; conditions: 250 μg. disk^−1; incubated at room temperature 42-120 hrs
Source text: as §3, §4, §5

[12] = system: T. violaceum; assay: Disk diffusion assay, zone of inhibition; assay type: cell-based; conditions: 250 μg. disk^−1; incubated at room temperature 42-120 hrs
Source text: as §3, §4, §5

[13] = system: Aspergillus niger; assay: Disk diffusion assay, zone of inhibition; assay type: cell-based; conditions: 250 μg. disk^−1; incubated at room temperature 42-120 hrs
Source text: as §3, §4, §5

[14] = system: Microsporum gypseum; assay: Disk diffusion assay, zone of inhibition; assay type: cell-based; conditions: 250 μg. disk^−1; incubated at room temperature 42-120 hrs
Source text: as §3, §4, §5

[15] = system: Trichophyton mentagrophytes; assay: Disk diffusion assay, zone of inhibition; assay type: cell-based; conditions: 250 μg. disk^−1; incubated at room temperature 42-120 hrs
Source text: as §3, §4, §5

[16] = system: Aspergillus fresenii; assay: Disk diffusion assay, zone of inhibition; assay type: cell-based; conditions: 250 μg. disk^−1; incubated at room temperature 42-120 hrs
Source text: as §3, §4, §5

[17] = system: Aspergillus niger; assay: Minimum Inhibitory Concentration (MIC), disk diffusion method; assay type: cell-based; conditions: 3.12-50 μg per disk tested, 42-120 hrs at room temperature
Source text: as §3, §4, §1, §2

[18] = system: Cladosporium cucumerinum; conditions: plant pathogenic fungus Cladosporium cucumerinum; cited from earlier work

Compound | antifungal activity in words [1] | MIC [2] | MIC [3] | MIC [4] | MIC [5] | MIC [6] | MIC [7] | MIC [8] | Disk Diffusion Method, zone of inhibition [9] [mm] | Disk Diffusion Method, zone of inhibition [10] [mm] | Disk Diffusion Method, zone of inhibition [11] [mm] | Disk Diffusion Method, zone of inhibition [12] [mm] | Disk Diffusion Method, zone of inhibition [13] [mm] | Disk Diffusion Method, zone of inhibition [14] [mm] | Disk Diffusion Method, zone of inhibition [15] [mm] | Disk Diffusion Method, zone of inhibition [16] [mm] | MIC [17] | sensitivity of filamentous fungi in words ([1]; filamentous fungi) | antifungal amount in TLC bioassay [18] [µg]
3-O-α-rhamnopyranosyl-rhamnopyranosyl-glucopyranosyl-glucoronopyranosylgluco-pyrano side 16 α-hydroxy-13,28-epoxy oleanane [Compound 1] | fungicidal against all the strains of yeast and filamentous fungi tested except Aspergillus niger | 12.5-25 μg. disk^−1 | 6.25-12.5 μg. disk^−1 | 6.25-12.5 μg. disk^−1 | 25-50 μg. disk^−1 | 12.5-25 μg. disk^−1 | 25-50 μg. disk^−1 | 25-50 μg. disk^−1 | 14 | 9 | 9 | 13 | 4 | 14 | 12 | 10 |  |  | 
C[C@@H]1[C@H](O)[C@@H](C)/C=C/C=C/C=C/C=C/C=C/C=C/C=C/[C@H](O[C@@H]2O[C@H](C)[C@@H](O)[C@H](N)[C@@H]2O)C[C@@H]2O[C@](O)(C[C@@H](O)C[C@@H](O)[C@H](O)CC[C@@H](O)C[C@@H](O)CC(=O)O[C@H]1C)C[C@H](O)[C@H]2C(=O)O [Amphotericin B, reference compound] | sensitive | 6.25-12.5 μg. disk^−1 | 3.12-6.25 μg. disk^−1 | 3.12-6.25 μg. disk^−1 | 6.25-12.5 μg. disk^−1 | 6.25-12.5 μg. disk^−1 | 6.25-12.5 μg. disk^−1 | 12.5-25 μg. disk^−1 |  |  |  |  |  |  |  |  | 12.5-25 μg. disk^−1 |  | 
C[C@@H]1[C@H](O)[C@@H](C)/C=C/C=C/CC/C=C/C=C/C=C/C=C/C(O[C@H]2O[C@H](C)[C@@H](O)[C@H](N)[C@@H]2O)CC2O[C@](O)(CC(O)C(O)CCC(O)CC(O)CC(O)CC(=O)O[C@H]1C)CC(O)C2C(=O)O (some centres unmarked) [Nystatin] |  |  | 6.25-12.5 μg. disk^−1 | 6.25-12.5 μg. disk^−1 |  |  |  |  |  |  |  |  |  |  |  |  |  | resistant | 
Sakurasaponin |  |  |  |  |  |  |  |  |  |  |  |  |  |  |  |  |  |  | 1
